# Source: ChEMBL document CHEMBL1140538, “Pyrazolo[1,5-a]pyrimidines as orally available inhibitors of cyclin-dependent kinase 2” (Bioorg Med Chem Lett, 2007)
# Where “and” joins values, the source holds several entries; their conditions need not be identical. Equal values may be shown once.
# What was measured:
# [1] = Effect on cell proliferation assessed as radiolabeled thymidine incorporation in cell-based assay; format: functional; details: Homo sapiens
# [2] = molecular target: Glycogen synthase kinase-3 beta (Homo sapiens, UniProt P49841); experiment: Inhibition of human GSK3-beta
# Glycogen synthase kinase-3 beta, sequence (P49841 whole entry): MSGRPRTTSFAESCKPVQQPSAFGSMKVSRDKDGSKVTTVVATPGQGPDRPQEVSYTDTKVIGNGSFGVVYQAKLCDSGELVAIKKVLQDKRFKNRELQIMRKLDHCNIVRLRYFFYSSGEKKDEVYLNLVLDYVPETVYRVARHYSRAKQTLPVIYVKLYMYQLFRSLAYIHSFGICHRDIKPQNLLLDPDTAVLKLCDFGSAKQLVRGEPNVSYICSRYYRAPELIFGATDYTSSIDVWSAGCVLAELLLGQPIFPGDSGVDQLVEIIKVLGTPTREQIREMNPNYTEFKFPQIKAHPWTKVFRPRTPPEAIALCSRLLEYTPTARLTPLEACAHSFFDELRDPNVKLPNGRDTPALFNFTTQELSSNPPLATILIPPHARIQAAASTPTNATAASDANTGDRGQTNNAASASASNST
# [3] = Inhibition of human CDK2/cyclin A
# [4] = Inhibition of human MAPK
# [5] = species on record: Homo sapiens; experiment: Protein binding in human; format: ADME, organism-based; details: in vivo
# [6] = species on record: Mus musculus; experiment: Protein binding in mouse; format: ADME, organism-based; details: in vivo
# [7] = species on record: Rattus norvegicus; experiment: Protein binding in rat; format: ADME, organism-based; details: in vivo
# [8] = test system: Rhesus monkey; experiment: Protein binding in monkey; format: ADME, organism-based, Macaca mulatta; details: in vivo
# [9] = species on record: Canis familiaris; experiment: Protein binding in dog; format: ADME, organism-based, Canis lupus familiaris; details: in vivo
# [10] = AUC in rat at 10 mg/kg; format: ADME, organism-based; design: dose 10 mg/kg; details: plasma
# [11] = Cmax in rat at 10 mg/kg; format: ADME, organism-based; design: dose 10 mg/kg; details: in vivo
# [12] = Tmax in rat at 10 mg/kg; format: ADME, organism-based; design: dose 10 mg/kg; details: in vivo
# [13] = AUC in mouse at 40 mg/kg; format: ADME, organism-based; design: dose 40 mg/kg; details: plasma
# [14] = Cmax in mouse at 40 mg/kg; format: ADME, organism-based; design: dose 40 mg/kg; details: in vivo
# [15] = Tmax in mouse at 40 mg/kg; format: ADME, organism-based; design: dose 40 mg/kg; details: in vivo
# [16] = AUC in dog at 5 mg/kg; format: ADME, organism-based, Canis lupus familiaris; design: dose 5 mg/kg; details: plasma
# [17] = Cmax in dog at 5 mg/kg, po; format: ADME, organism-based, Canis lupus familiaris; design: dose 5 mg/kg, route oral; details: in vivo
# [18] = AUC in monkey at 10 mg/kg; format: ADME, organism-based, Macaca mulatta; design: dose 10 mg/kg; details: rhesus monkey, plasma
# [19] = Cmax in monkey at 10 mg/kg; format: ADME, organism-based, Macaca mulatta; design: dose 10 mg/kg; details: rhesus monkey, in vivo
# [20] = Tmax in monkey at 10 mg/kg; format: ADME, organism-based, Macaca mulatta; design: dose 10 mg/kg; details: rhesus monkey, in vivo
# [21] = test system: A2780; experiment: Antitumor activity against A2780 cells xenografted in mouse at 40 mg/kg, po QD for 10 days; format: functional; details: A2780, 240 h
Structure (SMILES),IC50 [2] [nM],IC50 [3],IC50 [1] [nM],also measured
OC(c1cnn2c(NCc3cccnc3)cc(-c3ccccc3)nc12)C(F)(F)F (stereo unspecified),,3400 nM,,
OCCSc1cnn2c(NCc3cccnc3)cc(-c3ccccc3)nc12,,30 nM,,
Brc1cnn2c(NCc3cccnc3)cc(-c3ccccc3)nc12,570,11 nM,,IC50 [4]: 370 nM
C#Cc1cnn2c(NCc3cccnc3)cc(-c3ccccc3)nc12,9820,48 nM,,IC50 [4]: 7480 nM
C#CCc1cnn2c(NCc3cccnc3)cc(-c3ccccc3)nc12,,840 nM,,
Clc1ccccc1-c1cc(NC2CC2)n2ncc(Br)c2n1,,825 nM,,
COc1cnn2c(NCc3cccnc3)cc(-c3ccccc3)nc12,,1100 nM,,
Fc1ccccc1-c1cc(NCc2ccccc2)n2ncc(Br)c2n1,15200,300 nM,,
Brc1cnn2c(NCOc3cccnc3)cc(-c3ccccc3)nc12,600,34 nM,140,
CCOC(=O)c1cc(NCc2cccnc2)n2ncc(Br)c2n1,790,89 nM,2900,
Brc1cnn2c(NCc3cccnc3)cc(C3CCNCC3)nc12,410,16 nM,160,
Brc1cnn2c(NCc3cccnc3)cc(C3CCCCC3)nc12,27,4 nM,200,
CCc1cc(NCc2cccnc2)n2ncc(Br)c2n1,920,18 nM,520,
CNc1cc(NCc2cccnc2)n2ncc(Br)c2n1,4600,43 nM,1200,
CC(C)c1cnn2c(NCc3cccnc3)cc(-c3ccccc3)nc12,,370 nM,,
Fc1ccccc1-c1cc(Nc2ccccc2)n2ncc(Br)c2n1,13300,408 nM,,
CS(=O)(=O)c1ccc(Nc2cc(-c3ccccc3Cl)nc3c(Br)cnn23)cc1,450,350 nM,900,
c1ccc(Cc2cnn3c(NCc4cccnc4)cc(-c4ccccc4)nc23)cc1,,16000 nM,,
O=[N+]([O-])c1cnn2c(NCc3cccnc3)cc(-c3ccccc3)nc12,,> 50000 nM,,
OCc1cnn2c(NCc3cccnc3)cc(-c3ccccc3)nc12,,2170 nM,,
c1ccc(-c2cc(NCc3cccnc3)n3nccc3n2)cc1,,250 nM,,
Brc1cnn2c(NCc3cccnc3)cc(-c3cccs3)nc12,480,13 nM,750,

# Second part, led by results:
IC50 [2] [nM],IC50 [3],Structure (SMILES),IC50 [1] [nM],also measured
247,20 nM,CNc1cc(-c2ccccc2Cl)nc2c(Br)cnn12,1800,
,> 50000 nM,c1ccc(-c2cc(NCc3cccnc3)n3ncc(-c4ccccc4)c3n2)cc1,,
,34000 nM,CN(C)Cc1cnn2c(NCc3cccnc3)cc(-c3ccccc3)nc12,,
,> 50000 nM,CC(=O)c1cnn2c(NCc3cccnc3)cc(-c3ccccc3)nc12,,
3530,60 nM,Cc1cc(NCc2cccnc2)n2ncc(Br)c2n1,1800,
1180,38 nM,CSc1cc(NCc2cccnc2)n2ncc(Br)c2n1,990,
,49 nM,Cc1ccccc1-c1cc(NCc2ccc[n+]([O-])c2)n2ncc(Br)c2n1,,
,250 nM,Nc1cc(-c2ccccc2)nc2c(Br)cnn12,,
2800,8 nM,CCc1cnn2c(NCc3cccnc3)cc(-c3ccccc3)nc12,,IC50 [4]: 2000 nM
,890 nM,CCCc1cnn2c(NCc3cccnc3)cc(-c3ccccc3)nc12,,
,71 nM,c1ccc(-c2cc(NCc3cccnc3)n3ncc(C4CC4)c3n2)cc1,,
,163 nM,CCCNc1cc(-c2ccccc2Cl)nc2c(Br)cnn12,,
,710 nM,FC(F)(F)Cc1cnn2c(NCc3cccnc3)cc(-c3ccccc3)nc12,,
310,8 nM,Brc1cnn2c(NCc3cccnc3)cc(-c3ccco3)nc12,15200,
420,17 nM,CC(C)c1cc(NCc2cccnc2)n2ncc(Br)c2n1,950,
1410,35 nM,COc1cc(NCc2cccnc2)n2ncc(Br)c2n1,2000,

IC50 [2] [nM],IC50 [3],Structure (SMILES),IC50 [1] [nM],also measured
500,38 nM,CC(O)c1cc(NCc2cccnc2)n2ncc(Br)c2n1 (stereo unspecified),1400,
180,8 nM,Brc1cnn2c(NCc3cccnc3)cc(C3CCCNC3)nc12 (stereo unspecified),60,
,210 nM,Brc1cnn2c(NCc3cccnc3)cc(N3CCNCC3)nc12,,
35,11 nM,Clc1ccccc1-c1cc(NCOc2cccnc2)n2ncc(Br)c2n1,170,
130,13 nM,Fc1ccccc1-c1cc(NCOc2cccnc2)n2ncc(Br)c2n1,210,Activity [5]: 95%; Activity [6]: 90%; Activity [7]: 85%; Activity [8]: 89%; Activity [9]: 93%; AUC [10]: 16.4 µM·h; Cmax [11]: 2290 nM; Tmax [12]: 2 h; AUC [13]: 17.9 µM·h; Cmax [14]: 6810 nM; Tmax [15]: 2 h; AUC [16]: 2.44 µM·h; Cmax [17]: 2580 nM; AUC [18]: 43 µM·h; Cmax [19]: 3200 nM; Tmax [20]: 3.3 h; inhibition in vivo at 40 mg/kg [21]: 96%
1100,49 nM,N#CCc1cnn2c(NCc3cccnc3)cc(-c3ccccc3)nc12,,IC50 [4]: 1330 nM
,90 nM,C=Cc1cnn2c(NCc3cccnc3)cc(-c3ccccc3)nc12,,
,95 nM,FC(F)(F)c1cnn2c(NCc3cccnc3)cc(-c3ccccc3)nc12,,
1800,7 nM,CSc1cnn2c(NCc3cccnc3)cc(-c3ccccc3)nc12,,IC50 [4]: 900 nM
1130,45 nM,Brc1cnn2c(NCc3cccnc3)cc(C3CC3)nc12,1500,
,72 nM,Cc1cnn2c(NCc3cccnc3)cc(-c3ccccc3)nc12,,IC50 [4]: 1400 nM
54,4 nM and 3 nM,Clc1ccccc1-c1cc(NCc2cccnc2)n2ncc(Br)c2n1,500,
,1200 nM,CCCCc1cnn2c(NCc3cccnc3)cc(-c3ccccc3)nc12,,
,500 nM,Clc1cccc(-c2cc(NCc3ccncc3)n3nccc3n2)c1Cl,,
34,2 nM,CC(=O)NCCSc1cnn2c(NCc3cccnc3)cc(-c3ccccc3)nc12,,IC50 [4]: 12000 nM
,3000 nM,CC(Nc1cc(-c2ccccc2)nc2c(Br)cnn12)c1cccnc1 (stereo unspecified),,
